Experimental data published in patent publication US20180163221A1, “TRANSGENIC PLANTS EXPRESSING TYPE 2C PROTEIN PHOSPHATASE ABSCISIC ACID (PP2CABA) PROTEINS AND USES THEREOF” (Academia Sinica, priority 2016, published 2018).

Assays:
[1] = system: genes essential for lignin and suberin biosynthesis; experiment: Quantitative RT-PCR of lignin and suberin biosynthesis genes in roots of ABA-treated WT rice; type: in vivo, Oryza sativa; conditions: ABA 24 hours, except PAL and CAD
Excerpt: FIG. 9A to FIG. 9B include diagrams showing that ABA and PP2CABA up-regulating the expression of genes essential for lignin and suberin biosynthesis. […] Total RNA was purified from roots and subjected to quantitative RT-PCR analysis using gene specific primers.
Total RNA was purified from rice tissues using Trizol reagent (Invitrogen) and treated with RNase-free DNase I (Promega). The DNase-digested RNA sample was used for reverse transcription by Superscript III reverse transcriptase (Invitrogen). Samples, which served as cDNA stocks for PCR analysis, were stored at −70° C. RT-PCR analysis was performed in a 50-μl solution containing 5-μl cDNA stock using Taq DNA polymerase (Viogene). RT-PCR products were fractionated in a 1.5% agarose gel and visualized by ethidium bromide staining. All RT-PCR analyses were performed from at least two batches of RNA samples with similar results. For quantitative RT-PCR analyses, 5-μl of cDNA was mixed with primers and the 2× Power SYBR Green PCR Master Mix reagent (Roche) and applied to an ABI 7500 Real-Time PCR system (Applied Biosystems). The quantitative variation between different samples was evaluated by the Δ-Δ cycle threshold method, and the amplification of ubiquitin 5 was used as an internal control to normalize all data.

rice seedlings [2] = conditions: Chen et al. 2015; cited from earlier work
rice seedlings [3] = experiment: Lateral root growth and root diameter of rice seedlings treated with ABA; type: in vivo, Oryza sativa; conditions: 1 μM ABA
Description: FIG. 5A to FIG. 5B include photos showing plants have lower LR to PR ratio under induction of ABA and expression of PP2CABA. […] Ten-day-old seedlings of segregated wild type (WT) or pp2caba homozygous mutant were treated with (+) or without (−) 1 μM ABA for 3 days. Upper panel: morphology of roots. Lower panel: elongation of LR in boxed area (1 cm above the root tip) of roots in upper panel. LRP (marked by arrowheads) were initiated but not elongated in WT in the presence of ABA. […] Upper panel: morphology of roots. Lower panel: elongation of LR in boxed area (2 cm above the root tip) of roots in upper panel. LRP (marked by arrowheads) were initiated but not elongated in PP2CABA-overexpressing transgenic rice. S: seminal roots. C: crown roots.
The japonica rice (Oryza sativa cv Tainung 67) was used in this study. Plasmids were introduced into Agrobacterium tumefaciens strain EHA105, and rice transformation was performed as described (Chen et al., J Biol Chem, 277:13641 (2002)). The PP2CABA mutant seeds were obtained from the Taiwan Rice Insertional Mutant (TRIM) library (Hsing et al., Plant Molecular Biology, 63:351 (2007)). For hydroponic culture of rice seedlings, seeds were sterilized with 3% NaOCl for 30 minutes, washed extensively with distilled water, and germinated in petri dishes with wetted filter papers at 37° C. in the dark. After 48 h of incubation, germinated seeds were cultivated in Yoshida solution (Yoshida et al., International Rice Research Institute, 3 (1976)). The culture solution was replaced with fresh solution every 2 days. For observation of root growth in glass tube with phytagel, sterilized rice seeds were germinated on the surface of plate with Yoshida solution with 0.3% phytagel without sugar in the dark at 28° C. for about 48 hours. The germinated seedlings were then transplanted to glass tubes, which were 22 cm in height and 4.5 cm in diameter, and each filled with 150 ml Yoshida solution with 0.3% phytagel without sugar. 6 cm plastic dish was used to cover the glass tube and sealed by micropore tape to allow light penetration and gas exchange and prevent the medium from becoming contaminated by external microbes. Seedlings were grown under a 14-h-light/10-h-dark cycle in a 28° C. chamber.

PP2CABA promoter = experiment: GUS staining of transgenic rice carrying PP2CABA:GUS treated with ABA; type: in vivo, Oryza sativa; conditions: 10 μM ABA for 1 day; basal meristem region in root tips, LR primordia and young leaves
Description: (§1) FIG. 3A to FIG. 3D include diagrams showing plants have higher PP2CABA expression under induction by ABA and abiotic stress and are expressed in meristematic tissues. […] Ten-day-old rice seedlings were treated with 5 μM ABA, 200 mM NaCl, dehydration on tissue papers, or 4° C. for 3 hours. Total RNAs were purified from shoots and roots, and subjected to quantitative RT-PCR analysis using gene specific primers. […] Ten-day-old WT rice seedlings were treated with various concentrations of ABA for 24 hours. Total RNAs were purified from roots, and subjected to quantitative RT-PCR analysis using PP2CABA-specific primers. […] Recombinant GST-PP2CABA, GST-PP2CABA (D100A), GST-ABI2, and GST proteins were expressed in E. coli, purified and reacted with a phosphor peptide substrate, RRApTVA, and phosphatase activities were determined by measuring released free phosphate. […] Ten-day-old seedlings of transgenic rice carrying PP2CABA:GUS were treated with (lower panel) or without (upper panel) 10 μM ABA for 1 day and then stained for GUS activity. Arrow indicates young leaves.
Tissues were placed in GUS assay buffer containing (0.1 M NaPO4 buffer pH 7.0, 10 mM EDTA, 0.1% Triton X-100, 0.5 mM potassium ferricyanide pH 7.0, and 1.0 mM X-glucuronide) and incubated overnight at 37° C. Vacuum aspiration was applied during initial 30 minutes. […]

[4] = system: PP2CABA expression in roots; experiment: Quantitative RT-PCR of PP2CABA expression in roots of ABA-treated rice seedlings; type: in vivo, Oryza sativa; conditions: various concentrations of ABA, 24 hours
Description: FIG. 3A to FIG. 3D include diagrams showing plants have higher PP2CABA expression under induction by ABA and abiotic stress and are expressed in meristematic tissues. […] Ten-day-old rice seedlings were treated with 5 μM ABA, 200 mM NaCl, dehydration on tissue papers, or 4° C. for 3 hours. Total RNAs were purified from shoots and roots, and subjected to quantitative RT-PCR analysis using gene specific primers. […] Ten-day-old WT rice seedlings were treated with various concentrations of ABA for 24 hours. Total RNAs were purified from roots, and subjected to quantitative RT-PCR analysis using PP2CABA-specific primers. […] Recombinant GST-PP2CABA, GST-PP2CABA (D100A), GST-ABI2, and GST proteins were expressed in E. coli, purified and reacted with a phosphor peptide substrate, RRApTVA, and phosphatase activities were determined by measuring released free phosphate. […]
Total RNA was purified from rice tissues using Trizol reagent (Invitrogen) and treated with RNase-free DNase I (Promega). […] For quantitative RT-PCR analyses, 5-μl of cDNA was mixed with primers and the 2× Power SYBR Green PCR Master Mix reagent (Roche) and applied to an ABI 7500 Real-Time PCR system (Applied Biosystems). The quantitative variation between different samples was evaluated by the Δ-Δ cycle threshold method, and the amplification of ubiquitin 5 was used as an internal control to normalize all data.

rice roots = experiment: Histochemical staining of root sections for lignin (acriflavine) and suberin (fluorol yellow 088); type: in vivo, Oryza sativa; conditions: 1 μM ABA, 3 days
Description: FIG. 10A to FIG. 10B include photos showing ABA and PP2CABA enhance the accumulation of lignin and suberin in cell walls of root peripheral layers and increase the root diameter. […] 1 μM ABA was added and seedlings were cultured for another 3 days. […] Roots at 1 cm above the apex were cross-sectioned and stained with acriflavine for lignin and fluorol yellow 088 for suberin. F, fluorescence image; T, transmission image; EP, epidermis; EX, exodermis; SC, sclerenchyma; CO, cortex. Scale bars=10 μm.
Methonal fixed roots were embedded in 5% agar and cut into 100 μm cross sections using a vibratome (DOSAKA DTK-1000). To check for autofluorescence, sections were viewed under a Zeiss Axiolmager Z1 fluorescence microscope with UV illumination using excitation filter G 365, chromatic beam splitter FT 395, and barrier filter LP 420. To check for lignin distribution, sections were stained with Acriflavine as described (Rocha et al., Front Plant Sci, 5:102 (2014)). Sections were imaged with a Zeiss LSM 510 META confocal microscope using a 488 nm laser line for excitation and a 505 to 550 nm band pass filter for emission. To check for suberin lamellae, sections were stained with Fluorol Yellow 088 as described (Brundrett et al., Biotech Histochem, 66:111 (1991); Landgraf et al., Plant Cell, 26:3403 (2014)). […]

[5] = target: T1, phosphor peptide substrate RRApTVA
T1 chain: RRATVA

[6] = system: phosphor peptide substrate, RRApTVA; experiment: Phosphatase activity assay of GST fusion proteins (released free phosphate); type: biochemical; conditions: recombinant GST fusion protein from E. coli, synthetic phosphopeptide
Description: as §1
FIG. 6A to FIG. 6E include diagrams showing PP2CABA having two forms which are translated from the first and the second ATG codons. […] The 2nd ATG encodes the Met at amino acid residue 41. Amino acids 1-24 are putative signal peptide (SP). […] Protein loading is shown by the Ponceau S staining (lower panel). […]

CC1=CC(=O)CC(C)(C)[C@@]1(O)/C=C/C(C)=C\C(=O)O [ABA, abscisic acid]
expression of lignin and suberin biosynthesis genes [1]: induced | ABA concentrations that enhance LR growth (rice seedlings [2]): ≤ 0.1 µM | ABA concentrations that inhibit LR growth (rice seedlings [2]): ≥ 0.2 µM | LR growth, WT compared with pp2caba (rice seedlings [3]): more severely inhibited in WT than in pp2caba mutant | LR growth in WT (rice seedlings [3]; 3 days, WT seedlings, maturation zones of roots): completely inhibited | LR growth in pp2caba (rice seedlings [3]; 3 days, pp2caba homozygous mutant, maturation zones of roots): stunted | root diameter (rice seedlings [3]; both WT and pp2caba): enlarged | PP2CABA promoter activity (GUS) (PP2CABA promoter): induced | dose dependence of PP2CABA expression in roots [4]: increased with ABA concentrations in a dose-dependent manner | accumulation of lignin and suberin in endodermal and exodermal cell layers in roots (rice roots): enhanced the accumulation of lignin and suberin

B1: GST-PP2CABA (protein)
chain: LSQGAEEEEDDGEVRLMGLAGEAAGSPGSGGGFSANGKFSYGYASSPGKRSSMEDFYDTRIDGVDGETVGLFGVFDGHGGARAAEFVKQNLFTNLIKHPKLFSDTKSAIAETYTSTDSELLKAETSHNRDAGSTASTAILVGDRLLVANVGDSRAVICRGGDAIAVSRDHKPDQSDERQRIEDAGGFVMWAGTWRVGGVLAVSRAFGDKLLKQYVVADPEIKEEVVDSSLEFLILASDGLWDVVTNEEAVAMVKPILDSEQAAKKLLQEASQRGSADNITCLVVRFLEQENHLPERPTNDQAS
phosphatase activity (released free phosphate) [5]: GST-PP2CABA fusion protein expressed and purified from E. coli exhibited phosphatase activity

B2: GST-PP2CABA(25-327) (protein)
chain: LSQGAEEEEDDGEVRLMGLAGEAAGSPGSGGGFSANGKFSYGYASSPGKRSSMEDFYDTRIDGVDGETVGLFGVFDGHGGARAAEFVKQNLFTNLIKHPKLFSDTKSAIAETYTSTDSELLKAETSHNRDAGSTASTAILVGDRLLVANVGDSRAVICRGGDAIAVSRDHKPDQSDERQRIEDAGGFVMWAGTWRVGGVLAVSRAFGDKLLKQYVVADPEIKEEVVDSSLEFLILASDGLWDVVTNEEAVAMVKPILDSEQAAKKLLQEASQRGSADNITCLVVRFLEQENHLPERPTNDQAS
phosphatase activity (released free phosphate) [5]: both of L form and S form of PP2CABA have phosphatase activities

B3: GST-PPCABA(41-327) (protein)
chain: MGLAGEAAGSPGSGGGFSANGKFSYGYASSPGKRSSMEDFYDTRIDGVDGETVGLFGVFDGHGGARAAEFVKQNLFTNLIKHPKLFSDTKSAIAETYTSTDSELLKAETSHNRDAGSTASTAILVGDRLLVANVGDSRAVICRGGDAIAVSRDHKPDQSDERQRIEDAGGFVMWAGTWRVGGVLAVSRAFGDKLLKQYVVADPEIKEEVVDSSLEFLILASDGLWDVVTNEEAVAMVKPILDSEQAAKKLLQEASQRGSADNITCLVVRFLEQENHLPERPTNDQAS
phosphatase activity [6]: have phosphatase activities | phosphatase activity (released free phosphate) [5]: both of L form and S form of PP2CABA have phosphatase activities

B4: GST-PP2CABA: GST-PP2CABA fusion protein expressed and purified from E. coli (protein)
chain: LSQGAEEEEDDGEVRLMGLAGEAAGSPGSGGGFSANGKFSYGYASSPGKRSSMEDFYDTRIDGVDGETVGLFGVFDGHGGARAAEFVKQNLFTNLIKHPKLFSDTKSAIAETYTSTDSELLKAETSHNRDAGSTASTAILVGDRLLVANVGDSRAVICRGGDAIAVSRDHKPDQSDERQRIEDAGGFVMWAGTWRVGGVLAVSRAFGDKLLKQYVVADPEIKEEVVDSSLEFLILASDGLWDVVTNEEAVAMVKPILDSEQAAKKLLQEASQRGSADNITCLVVRFLEQENHLPERPTNDQAS
modifications: left off: a dimerising Fc or GST
notes: GST-PP2CABA fusion protein expressed and purified from E. coli
phosphatase activity [6]: exhibited phosphatase activity
